# Numbered stars: 1 amine (or outer) side, 2 acyl side, 3 side chain; on linkers, the order of the positions; unused ones are H or OH. Bridge positions count the residues as written; N and C are the ends. Square brackets hold non-standard residues; d marks the D form. Peptide text beside a SMILES is read from it. I, II: the chains in the order shown. Actinocin(9to1) = Cc1c2oc3c(C)ccc(C(=O)[*:1])c3nc-2c(C(=O)[*:2])c(N)c1=O; NMeV = CN[C@H](C(=O)O)C(C)C; Sar = CNCC(=O)O
# Columns and labels:
# murine leukemia cells = settings: also in a number of human tumor xenografts; cited from earlier work
# 4E-BP = experiment: Western blot of 4E-BP and S6K phosphorylation status in MEFs stimulated with insulin (± rapamycin); assay type: cell-based, murine
# Protocol: (§1) FIG. 14. (A) Western blot analysis of 4E-BP and S6K phosphorylation status in MEFs (murine embryo fibroblasts) stimulated with insulin (±rapamycin). Antibodies to pan-4E-BP and eIF4E antibodies were used. The phosphorylation status of 4E-BP is evident by a shift to a slower mobility species (shift from α to γ species). […] (B) Clofoctol inhibits protein synthesis in cells. MEF cells were incubated for 45 minutes in the presence of increasing amounts of clofoctol in methionine-free culture media. S^35-methionine was then added to the cell culture and incubation continued for 15 minutes. The amount of S^35-methionine incorporated into newly synthesized proteins was detected by TCA precipitation of the cell lysate following by scintillation counting. Results are expressed relative to the incorporation in the presence of 0.5% DMSO.
# [1] = system: Lymphomas derived from Eμ-myc, Eμ-myc×Tsc2(−/+), or Bcl2/Eμ-myc mice; experiment: Growth/cytotoxicity in lymphoma cell lines in culture; assay type: cell-based
# From the text: FIG. 15. Clofoctol Inhibits growth of tumor cell lines in culture. Lymphomas derived from Eμ-myc, Eμ-myc×Tsc2(−/+), or Bcl2/Eμ-myc mice were exposed to the indicated concentrations of Clofoctol and cytotoxicity monitored.
# MEF cells = experiment: S35-methionine incorporation (protein synthesis) in MEF cells; assay type: cell-based, murine; settings: 45 min + 15 min labeling, relative to 0.5% DMSO
# Protocol: as §1
# HeLa cell polyribosomes = experiment: HeLa cell polyribosome profile on sucrose gradients; assay type: cell-based; settings: 10 uM, 20 min
# Protocol: (§2) FIG. 4. Effect of hippuristanol on protein, RNA and DNA synthesis in cells. A. Relative rate of ^35S-methionine incorporation as a function of hippuristanol concentration in HeLa cells. Cells were exposed to the indicated concentration of compound for 50 min., followed by a 10 min. labeling period with ^35S-methionine in the presence of compound. The rate of protein synthesis (TCA precipitable cpm) obtained in the presence of compound was normalized to the rate obtained in the presence of DMSO (which was set at 1). The rate of protein synthesis in the control reactions (containing DMSO vehicle) averaged ˜700,000 cpm/10 min. labeling period. Results are shown for two experiments and the error of the mean is presented. The relative rate of ^35S-methionine incorporation in HeLa cells exposed to 10 μM anisomycin (positive control) for 60 min. was ˜0.02 (data not shown). B. Effect of hippuristanol on protein (gray circles), DNA (open squares), and RNA (solid squares) synthesis in HeLa cells. […] Gradients were analyzed by piercing the tube with a Brandel tube piercer, passing 60% sucrose through the bottom of the tube, and monitoring the absorbance of the material eluting from the tube using an ISCO UA-6 UV Detector.
# HeLa cells [2] = experiment: 35S-methionine incorporation (protein synthesis) in HeLa cells; assay type: cell-based; settings: HeLa cells, 10 μM, 60 min; normalized to DMSO (set at 1); positive control, data not shown
# Protocol: FIG. 4. Effect of hippuristanol on protein, RNA and DNA synthesis in cells. A. Relative rate of ^35S-methionine incorporation as a function of hippuristanol concentration in HeLa cells. Cells were exposed to the indicated concentration of compound for 50 min., followed by a 10 min. labeling period with ^35S-methionine in the presence of compound. The rate of protein synthesis (TCA precipitable cpm) obtained in the presence of compound was normalized to the rate obtained in the presence of DMSO (which was set at 1). The rate of protein synthesis in the control reactions (containing DMSO vehicle) averaged ˜700,000 cpm/10 min. labeling period. Results are shown for two experiments and the error of the mean is presented. The relative rate of ^35S-methionine incorporation in HeLa cells exposed to 10 μM anisomycin (positive control) for 60 min. was ˜0.02 (data not shown). B. Effect of hippuristanol on protein (gray circles), DNA (open squares), and RNA (solid squares) synthesis in HeLa cells. The rate of macromolecular synthesis (TCA precipitable cpm for a 10 min. labeling period) obtained in the presence of 1 μM hippuristanol was normalized to the rate obtained in the presence of DMSO and is plotted. The results are shown for two experiments and the error of the mean is presented. The rate of protein, RNA and DNA synthesis in the control reactions (containing DMSO vehicle) averaged ˜900,000 cpm/10 min, ˜16,000 cpm/10 min. and 7,000 cpm/10 min labeling, respectively. The relative rate of ^35S-methionine incorporation by HeLa cells exposed to 10 μM anisomycin for 60 min. (positive control for inhibition of protein synthesis) was 0.02 (data not shown). The relative rate of ^3H-uridine incorporation by HeLa cells exposed to 50 μM actinomycin (positive control for inhibition of RNA synthesis) for 60 min. was 0.01 (data not shown). C. […] Gradients were analyzed by piercing the tube with a Brandel tube piercer, passing 60% sucrose through the bottom of the tube, and monitoring the absorbance of the material eluting from the tube using an ISCO UA-6 UV Detector.
# HeLa cells [3] = experiment: 3H-uridine incorporation (RNA synthesis) in HeLa cells; assay type: cell-based; settings: 50 μM, 60 min, normalized to DMSO, positive control, data not shown
# Protocol: as §2
# [4] = system: Akt-driven Eμ-myc lymphomas; experiment: Akt-driven Eμ-myc lymphoma model, combination with doxorubicin; assay type: in vivo, Mice; settings: hippurin-1 5 mg/kg every day for 5 days, doxorubicin 10 mg/kg once on day 2 of 5
# Protocol: FIG. 13. Efficacy of hippurin-1 on Akt-driven Eμ-myc lymphomas when administered in combination with doxorubicin. Mice bearing Akt-driven Eμ-myc lymphomas where injected with either doxorubicin (10 mg/kg once on day 2 of 5), hippurin-1 alone (5 mg/kg every day for 5 days) or hippurin-1 and doxorubicin (hippurin-1: 5 mg/kg every day for 5 days, doxorubicin: 10 mg/kg once on day 2 of 5). Tumor size was monitored by (A) palpation (blinded study) and (B) blood smears on days 1, 3 and 5 during the treatment to assess the size of the lymphomas and the number of leukemic cells, respectively.
# human tumor stem cell = settings: in vitro; cited from earlier work
compound,measurement,setting,value
dehydrodidemnin 6,activity relative to didemnin B,murine leukemia cells,ten times more active
CC(C)(C)CC(C)(C)c1ccc(O)c(Cc2ccc(Cl)cc2Cl)c1 [Clofoctol],phosphorylation status of 4E-BP,"4E-BP; MEF cells, in the presence or absence of rapamycin",causes dephosphorylation of 4E-BP
same,S6 phosphorylation in the presence of rapamycin,"4E-BP; MEFs, FIG. 14A lane 4 vs 3",antagonizes rapamycin's block of S6 phosphorylation
same,growth of tumor cell lines in culture,[1],Inhibits
same,protein synthesis in cells,MEF cells,inhibits
"COc1ccc(C[C@H]2NC[C@H](O)[C@H]2OC(C)=O)cc1 [anisomycin, reference compound]",effect on HeLa cell polyribosomes,HeLa cell polyribosomes,blocked elongation and caused an accumulation of ribosomes in polysomes
same,relative rate of 35S-methionine incorporation,HeLa cells [2],~0.02
"Cc1c2oc3c(C)ccc(C(=O)N[C@@H]4C(=O)N[C@H](C(C)C)C(=O)N5CCC[C@H]5C(=O)N(C)CC(=O)N(C)[C@@H](C(C)C)C(=O)O[C@@H]4C)c3nc-2c(C(=O)N[C@@H]2C(=O)N[C@H](C(C)C)C(=O)N3CCC[C@H]3C(=O)N(C)CC(=O)N(C)[C@@H](C(C)C)C(=O)O[C@@H]2C)c(N)c1=O [actinomycin] (I: T[dV]P[Sar][NMeV] / II: T[dV]P[Sar][NMeV]; ester I:1-I:C, II:1-II:C; linker I:N-II:N via Actinocin(9to1))",relative rate of 3H-uridine incorporation,HeLa cells [3],0.01
CC(=O)O[C@@H]1C[C@@]2(C)[C@@H](CC[C@@H]3[C@@H]2[C@@H](O)C[C@@]2(C)[C@H]3C[C@@H]3O[C@@]4(C[C@H](C)C(C)(C)O4)[C@](C)(O)[C@@H]32)C[C@@H]1O [hippurin-1],adjuvant effect to doxorubicin in a mouse lymphoma model,[4],can act as adjuvant
CC[C@H](C)[C@H]1NC(=O)[C@@H](NC(=O)[C@@H](CC(C)C)N(C)C(=O)[C@@H]2CCCN2C(=O)C(C)O)[C@@H](C)OC(=O)[C@H](Cc2ccc(OC)cc2)N(C)C(=O)[C@@H]2CCCN2C(=O)[C@H](CC(C)C)NC(=O)[C@@H](C)C(=O)[C@H](C(C)C)OC(=O)C[C@@H]1O (stereo partly shown) [Didemnin B],concentrations inhibiting cell growth,human tumor stem cell,1 to 100 nM
